Measurements: article PMC12675575, “A BRET biosensor for measuring uncompetitive engagement of PRMT5 complexes in cells” (Nature Communications, 2025)
“And” between values parts separate entries of the source, which are not always exact repeats. Equal values may be shown once.

Key:
[1] = target: T1, NLuc-PRMT5 co-expressed with WDR77 in HCT116 MTAP wild-type cells (Homo sapiens, UniProt O14744); assay: Live-cell NanoBRET target engagement in HCT116 MTAP wild-type cells (NLuc-PRMT5 + WDR77); format: cell-based; conditions: for BRET, CBH-002 + DMSO: Fig 5A, Log([CBH-002]); for normalized BRET, CBH-002 + DMSO (Figure S6C) / normalized BRET, CBH-002 + GSK3326595 (Figure S6C): log([CBH-002])
T1 construct: Horizon Discovery (cells) #PAR-034 and #R02-033 (cells); host or cells: HCT116 MTAP wild-type / MTAP-/-
Description: HEK293 cells (ATCC) were cultured in DMEM (Thermo Fisher) + 10% (v/v) FBS (Seredigm), and HCT116 cells (Horizon Discovery, #PAR-034 and #R02-033) were cultured in McCoy’s 5A (Thermo Fisher) + 10% FBS, with incubation in a humidified, 37 °C/5% CO2 incubator. Cells were split 1–3 days prior to performing experiments and used at roughly 80% confluency. […] Cells were transfected according to the manufacturer’s protocol using FuGENE HD (Promega). NanoLuc fusion DNA was diluted into Transfection Carrier DNA (Promega) in Opti-MEM at a ratio of 1:9 (mass/mass), and FuGENE HD was added at a ratio of 1:3 (μg DNA:μL lipid). […] Formed complexes were combined with cells resuspended to a density of 2 × 10^5 cells/mL in Opti-MEM + 1% FBS at a ratio of 1:20 (vol:vol). […] Cells were seeded at a density of 2 × 10^5 cells/mL in Opti-MEM + 1% FBS in 100 μL (96-well). The BRET probe CBH-002 was prepared first as a 100× stock in 100% DMSO (Sigma) and then diluted to a 20× stock in NanoBRET Tracer Dilution buffer (Promega). Test compounds were prepared as 1000× stocks in 100% DMSO and diluted to 10× stocks in Opti-MEM to prepare working stocks. […] NanoBRET Complete 3x Substrate was prepared by combining Nano-Glo Substrate and Extracellular NanoLuc Inhibitor in Opti-MEM, according to the manufacturer’s protocol (Promega).
(§1) EC50 values were obtained by fitting the BRET probe and compound affinity curves to a sigmoidal four-parameter fit model in Graphpad Prism:1 Y=Ymin+Ymax−Ymin/1+10^LogEC50−Xh where h is the Hill Slope.
When normalized BRET was used, mBRET values were normalized using2 NormalizedBRET%=(Y−BRETmin)/BRETmax−BRETmin where y = mBRET in the presence of test compound and BRET probe, BRETmin = mBRET at the highest concentration (saturating) of test compound and BRET probe, and BRETmax = mBRET in the presence of vehicle (DMSO) and BRET probe.
Normalized concentration-response curves showing full competition were fit using a 2-parameter model:3 Y=100/1+10^LogEC50−Xh
In situations where only partial competition was observed, the normalized concentration-response curves were fit using Eq. 1 and where Ymin was constrained to >0.

NL-PRMT5 = target: T2, NL-PRMT5 (Homo sapiens, UniProt O14744); assay: CBH-002 affinity curve, HEK293, NL-PRMT5 fusion with empty carrier DNA (no WDR77); format: cell-based; design: unit not given here; conditions: Figure S2A NL-PRMT5, log([CBH-002])
T2 construct: host or cells: HEK293
Description: HEK293 cells (ATCC) were cultured in DMEM (Thermo Fisher) + 10% (v/v) FBS (Seredigm), and HCT116 cells (Horizon Discovery, #PAR-034 and #R02-033) were cultured in McCoy’s 5A (Thermo Fisher) + 10% FBS, with incubation in a humidified, 37 °C/5% CO2 incubator. Cells were split 1–3 days prior to performing experiments and used at roughly 80% confluency. […] Cells were transfected according to the manufacturer’s protocol using FuGENE HD (Promega). NanoLuc fusion DNA was diluted into Transfection Carrier DNA (Promega) in Opti-MEM at a ratio of 1:9 (mass/mass), and FuGENE HD was added at a ratio of 1:3 (μg DNA:μL lipid). For experiments using WDR77, untagged WDR77 DNA (Promega) was used in place of Carrier DNA. Formed complexes were combined with cells resuspended to a density of 2 × 10^5 cells/mL in Opti-MEM + 1% FBS at a ratio of 1:20 (vol:vol). Cells were plated into a flask and incubated at 37 °C in a humidified 5% CO2 atmosphere for 18–24 h, before being lifted and seeded into 96-well non-binding surface-treated plates (Corning). Cells were seeded at a density of 2 × 10^5 cells/mL in Opti-MEM + 1% FBS in 100 μL (96-well). The BRET probe CBH-002 was prepared first as a 100× stock in 100% DMSO (Sigma) and then diluted to a 20× stock in NanoBRET Tracer Dilution buffer (Promega). Test compounds were prepared as 1000× stocks in 100% DMSO and diluted to 10× stocks in Opti-MEM to prepare working stocks. […] NanoBRET Complete 3x Substrate was prepared by combining Nano-Glo Substrate and Extracellular NanoLuc Inhibitor in Opti-MEM, according to the manufacturer’s protocol (Promega). NanoBRET Complete 3× Substrate was added to cells and plates were measured on either a PheraSTAR FSX equipped with 450 nm (donor) and 610 nm (acceptor) filters, or a GloMAX Discover equipped with 450/8 nm BP (donor) and 600 nm LP (acceptor) filters, using a 0.3 s integration time.
as §1

T1 sequence (O14744 whole entry): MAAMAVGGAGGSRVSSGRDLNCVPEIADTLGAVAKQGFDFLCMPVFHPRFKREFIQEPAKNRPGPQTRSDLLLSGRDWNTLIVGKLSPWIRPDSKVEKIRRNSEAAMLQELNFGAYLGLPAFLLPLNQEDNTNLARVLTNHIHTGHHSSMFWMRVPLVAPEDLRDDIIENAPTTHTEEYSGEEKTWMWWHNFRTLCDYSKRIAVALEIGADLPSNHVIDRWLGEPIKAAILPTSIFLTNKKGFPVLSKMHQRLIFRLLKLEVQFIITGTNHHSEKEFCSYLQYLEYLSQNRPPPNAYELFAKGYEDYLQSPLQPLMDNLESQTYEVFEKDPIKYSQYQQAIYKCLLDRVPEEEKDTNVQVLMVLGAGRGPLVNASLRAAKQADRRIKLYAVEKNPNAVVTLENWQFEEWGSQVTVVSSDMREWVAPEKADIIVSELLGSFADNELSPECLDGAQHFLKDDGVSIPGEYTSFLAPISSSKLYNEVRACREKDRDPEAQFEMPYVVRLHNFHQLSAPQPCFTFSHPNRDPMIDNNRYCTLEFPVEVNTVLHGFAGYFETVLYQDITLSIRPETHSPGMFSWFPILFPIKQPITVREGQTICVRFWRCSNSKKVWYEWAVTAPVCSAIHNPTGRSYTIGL
T1 sequence (Q9BQA1 whole entry partner): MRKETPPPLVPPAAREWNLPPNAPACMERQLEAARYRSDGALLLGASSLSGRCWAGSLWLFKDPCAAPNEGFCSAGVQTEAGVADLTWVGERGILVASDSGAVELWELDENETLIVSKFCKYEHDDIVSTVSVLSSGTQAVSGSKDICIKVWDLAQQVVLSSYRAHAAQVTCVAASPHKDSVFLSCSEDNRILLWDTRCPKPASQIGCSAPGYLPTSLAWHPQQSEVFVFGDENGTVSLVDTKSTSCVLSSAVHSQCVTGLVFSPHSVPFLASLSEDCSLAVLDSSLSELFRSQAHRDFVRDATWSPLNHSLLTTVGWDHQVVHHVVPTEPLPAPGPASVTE
T2 sequence (O14744 whole entry, the tested form may be a part): as the sequence (O14744 whole entry) above

BRET, CBH-002 + DMSO ([1]; uM -0.60): 403 and 799.01 and 758.47
BRET, CBH-002 + DMSO ([1]; uM -0.90): 393 and 766.11 and 738.99
BRET, CBH-002 + DMSO ([1]; uM -1.20): 378 and 710.21 and 697.93
BRET, CBH-002 + DMSO ([1]; uM -1.51): 362 and 618.54 and 616.68
BRET, CBH-002 + DMSO ([1]; uM -1.81): 323
BRET, CBH-002 + DMSO ([1]; uM -2.71): 68.8 and 69.23 and 65.71
EC50 ([1]; HCT116 wild-type cells, WDR77 co-expression, read-out: CBH-002 apparent affinity (EC50)): 12 nM
normalized BRET, CBH-002 + DMSO (Figure S6C) ([1]; uM = -0.60): 100
normalized BRET, CBH-002 + GSK3326595 (Figure S6C) ([1]; uM = -0.60): 12.6717 and 16.8431 and 16.7636
normalized BRET, CBH-002 + DMSO (Figure S6C) ([1]; uM = -0.90): 97.4927 and 95.8339 and 97.4011
normalized BRET, CBH-002 + GSK3326595 (Figure S6C) ([1]; uM = -0.90): 9.237 and 13.3988 and 13.2855
normalized BRET, CBH-002 + DMSO (Figure S6C) ([1]; uM = -1.20): 93.7318 and 88.7552 and 91.9231
normalized BRET, CBH-002 + GSK3326595 (Figure S6C) ([1]; uM = -1.20): 5.8269 and 8.083 and 8.045
normalized BRET, CBH-002 + DMSO (Figure S6C) ([1]; uM = -1.51): 89.7202 and 77.147 and 81.0831
normalized BRET, CBH-002 + GSK3326595 (Figure S6C) ([1]; uM = -1.51): 3.295 and 4.174 and 4.336
normalized BRET, CBH-002 + DMSO (Figure S6C) ([1]; uM = -1.81): 79.9418 and 55.2096 and 56.8522
normalized BRET, CBH-002 + GSK3326595 (Figure S6C) ([1]; uM = -1.81): 1.59 and 1.874 and 2.064
normalized BRET, CBH-002 + DMSO (Figure S6C) ([1]; uM = -2.11): 57.6271 and 32.8998 and 32.0743
normalized BRET, CBH-002 + GSK3326595 (Figure S6C) ([1]; uM = -2.11): 0.7121 and 0.8016 and 0.8965
normalized BRET, CBH-002 + DMSO (Figure S6C) ([1]; uM = -2.41): 31.5515 and 15.8288 and 15.9084
normalized BRET, CBH-002 + GSK3326595 (Figure S6C) ([1]; uM = -2.41): 0.2206 and 0.2381 and 0.3149
normalized BRET, CBH-002 + GSK3326595 (Figure S6C) ([1]; uM = -2.71): 0
BRET, CBH-002 + DMSO (NL-PRMT5; uM 0.04576): 20.5721 and 25.8738 and 18.388
BRET, CBH-002 + GSK3326595 (NL-PRMT5; uM 0.04576): 1.809 and 2.429 and 2.181
BRET, CBH-002 + DMSO (NL-PRMT5; uM 0.52288): 24.1037 and 25.1393 and 24.5832
BRET, CBH-002 + GSK3326595 (NL-PRMT5; uM 0.52288): 4.538 and 4.814 and 4.399
BRET, CBH-002 + DMSO (NL-PRMT5; uM 1): 34.4603 and 46.2115 and 36.0512
BRET, CBH-002 + GSK3326595 (NL-PRMT5; uM 1): 12.5442 and 11.3355 and 11.5115
BRET, CBH-002 + DMSO (NL-PRMT5; uM -0.43136): 17.1332 and 19.3006 and 16.5836
BRET, CBH-002 + GSK3326595 (NL-PRMT5; uM -0.43136): 1.767 and 1.79 and 1.327
BRET, CBH-002 + DMSO (NL-PRMT5; uM -0.90849): 13.1405 and 15.4187 and 12.8329
BRET, CBH-002 + GSK3326595 (NL-PRMT5; uM -0.90849): 0.7756 and 0.9895 and 1.006
BRET, CBH-002 + DMSO (NL-PRMT5; uM -1.20952): 13.3172 and 13.6477 and 14.1021
BRET, CBH-002 + GSK3326595 (NL-PRMT5; uM -1.20952): 0.6778 and 0.9377 and 0.9652
BRET, CBH-002 + DMSO (NL-PRMT5; uM -1.68664): 10.4832 and 12.4293 and 10.2869
BRET, CBH-002 + GSK3326595 (NL-PRMT5; uM -1.68664): 1.144 and 1.071 and 1
BRET, CBH-002 + DMSO (NL-PRMT5; uM -1.98767): 7.5477 and 8.773 and 6.804
BRET, CBH-002 + GSK3326595 (NL-PRMT5; uM -1.98767): 0.4652 and 0.5599 and 0.5695
BRET, CBH-002 + DMSO (NL-PRMT5; uM -2.46479): 4.066 and 4.851 and 4.778
BRET, CBH-002 + DMSO (NL-PRMT5; uM -2.94191): 2.639 and 2.5785 and 2.4252
SMILES: O=C(CCc1ccc2n1[B-](F)(F)[N+]1=C(c3ccc[nH]3)C=CC1=C2)NCCCCC(=O)N1CCC(Nc2cc(C(=O)NC[C@H](O)CN3CCc4ccccc4C3)ncn2)CC1 [CBH-002]
